Measurements published in patent publication US20240350489A1, “LOU064 FOR TREATING MULTIPLE SCLEROSIS” (NOVARTIS AG, priority 2021, published 2024).
Entries after “also recorded” stand apart in the source; their conditions may differ. Like-named read-outs stand apart in the source and are kept apart here.

Legend:
[1] = Levels of LOU064 in mouse tissues (blood, brain, CSF); format: in vivo; details: for concentration at 1 h / concentration at 5 h / concentration at 8 h: C57BL/6, mouse, oral
Protocol: The compound levels in total brain homogenate are very low and mainly detectable at the early timepoint. Similarly, the levels in cerebrospinal fluid (CSF) are low.
Blood, brain and CSF levels of LOU064 after oral dosing of 3 and 30 mg/kg b.i.d. The LLOQ were 0.2 nM in blood, […] in brain homogenate and 0.5 nM in CSF. Shown are averages ±SD from 4 animals for the 1 h timepoints and from 3 animals for the 5 and 8 h timepoints. Where denoted with ^a, the values were derived from one animal of three that was above the LLOQ.

RatMOG-induced EAE = test: RatMOG-induced EAE, short eight-day (pre-disease) protocol; design: species or system mouse; details: dosed in vivo 8 days; LOU064 1, 3 and 10 mg/kg
Protocol: Isolated draining lymph node cells were incubated in vitro with RatMOG for 48 hours. Antigen-specific proliferation was determined by [^3H]-thymidine incorporation. Animals dosed in vivo with BTK inhibitors (LOU064, ibrutinib or Cyclosporin A (CsA) for 8 days. Group sizes n=4-5 per treatment.
To elucidate further whether BTK inhibitor efficacy was directly linked to reduction in B-cell antigen-presenting function compounds were tested in recombinant RatMOG-induced EAE model. This EAE model shares many of the characteristics of recombinant HumanMOG-induced EAE with MOG-specific T-cells infiltrating the CNS and resulting in neurological paralysis. However, RatMOG-induced EAE is B-cell independent and the dendritic cells are the dominant antigen-presenting cells type. Therefore, BTK inhibitors would be predicted to have no significant efficacy in RatMOG-induced EAE unless drug treatment was associated with a broader, non-specific, immune suppression. In addition to LOU064, which was used at 1 mg/kg, 3 mg/kg and 10 mg/kg, the reference compound ibrutinib was tested.
Cyclosporin A (CsA) acted as a positive control for direct T-cell immunosuppression. […] Ex vivo MOG-induced recall proliferation responses were studied using isolated splenocytes collected on day 8 post-immunization. In vivo BTK inhibitor treatment had no effect on recall responses (FIG. 12).

[2] = Passive permeability, canine P-gp knockout MDCK cell monolayers (MDCK-LE V2); format: in vitro ADME; details: dog, MDCK; 10 μM apical, two hours incubation
Protocol: (§1) Passive permeability measurement using canine P-gp knockout MDCK cell monolayers (MDCK-LE V2)
(§2) A cell-based assay was used to assess the passive permeability of drug candidates in the context of gastro-intestinal absorption. A MDCK cell line where the endogenous canine Mdr1 (cMdr1) gene encoding P-gp has been knocked out is grown to form monolayers on a 96-well Transwell plate. Compounds are loaded in cassettes of three at a concentration of 10 μM each to the apical compartment and following a period of two hours incubation the amount of compound appearing in the basal chamber is quantitated by tandem mass spectrometry.
(§3) In particular, a MDCK cell line was generated by knocking-out the endogenous canine Mdr1 (cMdr1) gene. A subclone of this cell line was used to relate passive permeability to the fraction absorbed in human intestine using a set of 37 commercial compounds for which the fraction absorbed was known. The assay is able to estimate the fraction absorbed in human based on the Papp measured in the assay.
(§4) Samples were subject to RapidFire/MS/MS analysis and LC/MS/MS analysis. […]

[3] = test system: canine P-gp knockout MDCK cell monolayers (MDCK-LE V2); test: as above; format: in vitro ADME; details: MDCK trans-well assay
Protocol: as §1, §2, §3, §4

BTK [4] = molecular target: T1, BTK (Mus musculus, UniProt P35991); test: BTK occupancy in spleen, lymph nodes and brain homogenate, HumanMOG EAE; format: in vivo
T1 construct: from tissue; host or cells: spleen, inguinal lymph nodes, blood and brain homogenate of C57BL/6 EAE mice
T1 sequence (P35991 whole entry): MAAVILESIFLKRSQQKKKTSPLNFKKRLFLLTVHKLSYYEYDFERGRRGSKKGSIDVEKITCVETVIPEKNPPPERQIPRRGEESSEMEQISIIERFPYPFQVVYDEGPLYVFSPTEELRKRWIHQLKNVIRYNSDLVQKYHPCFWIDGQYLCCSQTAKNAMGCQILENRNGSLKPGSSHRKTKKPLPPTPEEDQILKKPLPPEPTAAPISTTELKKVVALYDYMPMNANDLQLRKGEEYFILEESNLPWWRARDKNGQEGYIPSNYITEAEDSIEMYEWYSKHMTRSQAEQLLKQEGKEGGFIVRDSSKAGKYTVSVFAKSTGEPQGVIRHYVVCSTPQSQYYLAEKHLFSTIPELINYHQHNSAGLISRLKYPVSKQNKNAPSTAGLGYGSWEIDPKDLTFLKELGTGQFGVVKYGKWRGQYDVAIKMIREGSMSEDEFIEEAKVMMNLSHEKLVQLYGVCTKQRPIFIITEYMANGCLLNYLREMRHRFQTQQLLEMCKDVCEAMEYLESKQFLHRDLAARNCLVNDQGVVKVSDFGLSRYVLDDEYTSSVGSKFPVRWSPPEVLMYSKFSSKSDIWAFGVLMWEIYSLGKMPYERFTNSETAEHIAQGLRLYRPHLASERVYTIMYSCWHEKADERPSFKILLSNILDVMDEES
Protocol: BTK occupancy in spleen was determined at 1, 5 and 8 hours after b.i.d. oral dosing of LOU064 (FIG. 4).
BTK occupancy was assessed in brain homogenates that had been prepared for compound exposure analysis (FIG. 6). […] Variability in brain BTK occupancy might be due to the fact that the analysis was performed on the remainder of the homogenates prepared for compound level assessment.

[5] = test system: MOG-specific immunoglobulin responses; test: MOG-specific autoantibodies in serum, RatMOG EAE; format: in vivo, mouse; details: 30 mg/kg b.i.d., day 21, vs vehicle
Text: In immunized mice, treated with either vehicle or LOU064, the MOG-specific autoantibody levels, total IgM and IgG subclasses were markedly higher as compared to naive mice. LOU064 treatment had no effect on the MOG-specific IgM and IgG responses in serum compared to vehicle treated mice.

[6] = Phase 2b trial in CSU, efficacy over 12 weeks; format: in vivo, human; details: 25 mg b.i.d. regimen
Protocol: In a Phase 2b, randomized, double-blind, placebo-controlled trial evaluating the efficacy and safety of LOU064 over 12 weeks in patients inadequately controlled by Hi-antihistamines, with at least moderately active CSU, patients received LOU064 10 mg q.d. (once daily), 35 mg q.d., 100 mg q.d., 10 mg b.i.d. (twice daily), 25 mg b.i.d., 100 mg b.i.d., or placebo (1:1:1:1:1:1:1 ratio).

BTK [7] = molecular target: T2, BTK (Homo sapiens, UniProt Q06187); test: BTK occupancy in blood as biomarker for dose selection; format: in vivo; details: low doses
T2 construct: simulate BTK occupancy in human spleen/tissues across a range of doses; from tissue; host or cells: human spleen / peripheral tissues (simulated, not sampled)
T2 sequence (Q06187 whole entry): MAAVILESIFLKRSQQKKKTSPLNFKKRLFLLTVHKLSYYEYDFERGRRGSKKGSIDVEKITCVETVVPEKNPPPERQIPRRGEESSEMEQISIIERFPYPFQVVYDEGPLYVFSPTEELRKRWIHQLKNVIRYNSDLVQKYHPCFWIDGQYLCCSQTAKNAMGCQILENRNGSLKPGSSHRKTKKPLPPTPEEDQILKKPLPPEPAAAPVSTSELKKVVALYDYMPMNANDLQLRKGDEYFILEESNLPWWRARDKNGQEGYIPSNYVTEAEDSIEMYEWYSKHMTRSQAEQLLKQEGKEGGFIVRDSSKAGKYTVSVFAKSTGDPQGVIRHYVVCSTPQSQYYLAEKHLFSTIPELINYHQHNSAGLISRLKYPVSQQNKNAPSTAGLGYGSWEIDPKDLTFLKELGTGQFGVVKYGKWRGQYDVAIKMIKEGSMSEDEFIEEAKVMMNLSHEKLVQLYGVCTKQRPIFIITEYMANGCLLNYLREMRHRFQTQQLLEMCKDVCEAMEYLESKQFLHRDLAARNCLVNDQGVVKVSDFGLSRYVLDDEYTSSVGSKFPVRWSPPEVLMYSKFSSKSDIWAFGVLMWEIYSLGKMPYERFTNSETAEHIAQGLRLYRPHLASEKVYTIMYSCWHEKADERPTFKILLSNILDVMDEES
Text: BTK occupancy in blood is not an informative biomarker for the purpose of dose selection due to LOU064 pharmacological properties (irreversible binding). […] Occupancy in tissue may be more representative of the efficacy of LOU064.

NF-L = NF-L concentration in serum, RatMOG EAE; format: in vivo, mouse; details: 30 mg/kg b.i.d., vs vehicle
Text: In immunized mice, vehicle or LOU064-treated, the mean NF-L level was markedly higher as compared to naive mice.

[8] = single/multiple doses 0.5 mg to 600 mg up to 18 days; 100 and 200 mg b.i.d.; cited from earlier work
[9] = 3 mg/kg b.i.d., 1, 5 and 8 hours after dosing
[10] = 30 mg/kg b.i.d., 1, 5 and 8 hours after dosing

For `C=CC(=O)N(C)CCOc1c(N)ncnc1-c1cc(F)cc(NC(=O)c2ccc(C3CC3)cc2F)c1C` [LOU064, N-(3-(6-amino-5-(2-(N-methylacrylamido)ethoxy)pyrimidin-4-yl)-5-fluoro-2-methylphenyl)-4-cyclopropyl-2-fluorobenzamide], which “Levels of LOU064, Brain” value ([1]; 3 mg/kg p.o. b.i.d., 1 h) is on record?
The value was 2.3 ± 2.2 pmol/g.

What about the “Levels of LOU064, Brain” value ([1]; 3 mg/kg p.o. b.i.d., 5 h) of the same molecule?
The value was under 0.5 pmol/g.

What about the “Levels of LOU064, Brain” value ([1]; 3 mg/kg p.o. b.i.d., 8 h) of the same molecule?
Its value is under 0.5 pmol/g.

What about the “Levels of LOU064, Brain” value ([1]; 30 mg/kg p.o. b.i.d., 1 h) of the same molecule?
Its value is 13.5 ± 6.0 pmol/g.

And the “Levels of LOU064, CSF” value ([1]; 30 mg/kg p.o. b.i.d., 1 h)?
The value was 8.4 ± 3.1 nM.

And the “Levels of LOU064, Brain” value ([1]; 30 mg/kg p.o. b.i.d., 5 h)?
The value was 0.7 ± 0.02 pmol/g.

What about the “Levels of LOU064, Brain” value ([1]; 30 mg/kg p.o. b.i.d., 8 h) of the same molecule?
The value was under 0.5 pmol/g.

What about the concentration at 1 h ([1]; CSF, 3 mg/kg p.o. b.i.d., 1 h, read-out: Levels of LOU064, CSF) of the same molecule?
Its concentration at 1 h is 3 ± 3.3 nM.

And the concentration at 5 h ([1]; CSF, 3 mg/kg p.o. b.i.d., 5 h, one animal of three above LLOQ, read-out: Levels of LOU064, CSF)?
Its concentration at 5 h is 0.5 nM.

What about the concentration at 8 h ([1]; CSF, 3 mg/kg p.o. b.i.d., 8 h, read-out: Levels of LOU064, CSF) of the same molecule?
The concentration at 8 h was under 0.5 nM.

What about the concentration at 5 h ([1]; CSF, 30 mg/kg p.o. b.i.d., 5 h, one animal of three above LLOQ, read-out: Levels of LOU064, CSF) of the same molecule?
The concentration at 5 h was 0.5 nM.

And the concentration at 8 h ([1]; CSF, 30 mg/kg p.o. b.i.d., 8 h, read-out: Levels of LOU064, CSF)?
The concentration at 8 h was under 0.5 nM.

And the concentration at 1 h ([1]; whole blood, 3 mg/kg p.o. b.i.d., 1 h, read-out: Levels of LOU064, Blood)?
The concentration at 1 h was 28.2 ± 11.7 nM.

What about the concentration at 5 h ([1]; whole blood, 3 mg/kg p.o. b.i.d., 5 h, read-out: Levels of LOU064, Blood) of the same molecule?
Its concentration at 5 h is 0.4 ± 0.04 nM.

What about the concentration at 8 h ([1]; whole blood, 3 mg/kg p.o. b.i.d., 8 h, read-out: Levels of LOU064, Blood) of the same molecule?
Its concentration at 8 h is 0.2 ± 0.07 nM.

And the concentration at 1 h ([1]; whole blood, 30 mg/kg p.o. b.i.d., 1 h, read-out: Levels of LOU064, Blood)?
The concentration at 1 h was 371 ± 149 nM.

What about the concentration at 5 h ([1]; whole blood, 30 mg/kg p.o. b.i.d., 5 h, read-out: Levels of LOU064, Blood) of the same molecule?
The concentration at 5 h was 19.4 ± 9.9 nM.

And the concentration at 8 h ([1]; whole blood, 30 mg/kg p.o. b.i.d., 8 h, read-out: Levels of LOU064, Blood)?
Its concentration at 8 h is 3.4 ± 2.3 nM.

What about the “RatMOG (auto)antigen recall proliferation” value (RatMOG-induced EAE) of the same molecule?
Its value is “failed to inhibit (auto)antigen recall proliferation”.

And the Papp A→B at 2 h, 10 μM [2]?
Its Papp A→B at 2 h, 10 μM is 37.3 ×10⁻⁶ cm/s.

What about the recovery [3] of the same molecule?
Its recovery is “high recovery”.

And the “BTK occupancy in lymph nodes” value (BTK [4]; [9])?
The value was “maximal for both doses and showed a decay after a 3 mg/kg dose; also recorded: complete BTK occupancy”.

What about the “BTK occupancy in spleen” value (BTK [4]; [9]) of the same molecule?
The value was “maximal for both doses and showed a decay after a 3 mg/kg dose; also recorded: complete BTK occupancy”.

What about the “BTK occupancy in brain homogenate” value (BTK [4]; 3 mg/kg b.i.d., 1 hour timepoint) of the same molecule?
Its value is “only minimal BTK occupancy”.

And the “BTK occupancy in brain homogenate” value (BTK [4]; 30 mg/kg b.i.d.)?
Its value is “maximal BTK occupancy with a decline over the dosing interval”.

And the “BTK occupancy in lymph nodes” value (BTK [4]; [10])?
Its value is “a more sustained occupancy after the 30 mg/kg dose”.

What about the “BTK occupancy in spleen” value (BTK [4]; [10]) of the same molecule?
The value was “a more sustained occupancy after the 30 mg/kg dose”.

And the “MOG-specific IgM and IgG responses in serum” value [5]?
The value was “had no effect; also recorded: did not affect”.

And the “efficacy in CSU” value [6]?
The value was “particularly effective compared to the other doses”.

What about the “BTK occupancy in blood” value (BTK [7]) of the same molecule?
The value was “reaches full occupancy even at low doses”.

And the “mean serum NF-L level” value (NF-L)?
The value was “non-significant trend towards a lower mean NF-L level; also recorded: slightly reduced”.

What about the short-term safety [8] of the same molecule?
The short-term safety was “has been shown in Phase I clinical studies”.
